{"source": "PubChem BioAssay AID248", "about": "(DTP/NCI, 2004)", "tested_on": "L1210 leukemia ip in BDF1 mice, survival T/C", "test": "NCI In Vivo Anticancer Drug Screen. Data for tumor model L1210 Leukemia (intraperitoneal) in B6D2F1 (BDF1) mice", "details": "endpoint: mean survival time, higher = longer survival", "outline": "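Tumor was transplanted into mice, which were then dosed with test compound or vehicle alone. Survival was recorded for each group, and the treated figure was expressed relative to the control figure.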", "key": {"[1]": {"details": "dose: 100.0 mg/kg/injection, schedule: Q04DX003 (ip), vehicle: Klucel (hydroxypropylcellulose) (HPC)"}, "[2]": {"details": "dose: 200.0 mg/kg/injection, schedule: Q04DX003 (ip), vehicle: Klucel (hydroxypropylcellulose) (HPC)"}, "[3]": {"details": "dose: 400.0 mg/kg/injection, schedule: Q04DX003 (ip), vehicle: Klucel (hydroxypropylcellulose) (HPC)"}, "[4]": {"details": "dose: 100.0 mg/kg/injection, schedule: Q04DX002 (ip), vehicle: Klucel (hydroxypropylcellulose) (HPC)"}, "[5]": {"details": "dose: 200.0 mg/kg/injection, schedule: Q04DX002 (ip), vehicle: Klucel (hydroxypropylcellulose) (HPC)"}, "[6]": {"details": "dose: 100.0 mg/kg/injection, schedule: Q01DX001 (ip), vehicle: carboxymethylcellulose (CMC)"}, "[7]": {"details": "dose: 200.0 mg/kg/injection, schedule: Q01DX001 (ip), vehicle: carboxymethylcellulose (CMC)"}, "[8]": {"details": "dose: 400.0 mg/kg/injection, schedule: Q01DX001 (ip), vehicle: carboxymethylcellulose (CMC)"}, "[9]": {"details": "dose: 100.0 mg/kg/injection, schedule: Q01DX009 (ip), vehicle: saline with Tween-80"}, "[10]": {"details": "dose: 200.0 mg/kg/injection, schedule: Q01DX009 (ip), vehicle: saline with Tween-80"}, "[11]": {"details": "dose: 400.0 mg/kg/injection, schedule: Q01DX009 (ip), vehicle: saline with Tween-80"}, "[12]": {"details": "dose: 50.0 mg/kg/injection, schedule: Q01DX009 (ip), vehicle: saline"}}, "note": "Inconclusive results and toxic doses are left out."}
{"smiles": "O=C(CCN1CC1)NCCCCCCNC(=O)CCN1CC1", "values": [{"measurement": "T/C", "setting": "[1]", "result": "92 % of control"}, {"measurement": "T/C", "setting": "[2]", "result": "90 % of control"}, {"measurement": "T/C", "setting": "[3]", "result": "86 % of control"}]}
{"smiles": "O=C(O)CCCOc1ccc(Cl)cc1", "values": [{"measurement": "T/C", "setting": "[4]", "result": "96 % of control"}, {"measurement": "T/C", "setting": "[5]", "result": "101 % of control"}, {"measurement": "T/C", "setting": "dose: 400.0 mg/kg/injection, schedule: Q04DX002 (ip), vehicle: Klucel (hydroxypropylcellulose) (HPC)", "result": "104 % of control"}]}
{"smiles": "C[n+]1ccccc1/C=N/Nc1ccccc1", "values": [{"measurement": "T/C", "setting": "dose: 75.0 mg/kg/injection, schedule: Q01DX001 (ip), vehicle: other", "result": "96 % of control"}]}
{"smiles": "CN(C)Cc1ccc2ccccc2c1C(O)(c1ccccc1)c1ccccc1", "values": [{"measurement": "T/C", "setting": "[6]", "result": "96 % of control"}, {"measurement": "T/C", "setting": "[7]", "result": "98 % of control"}, {"measurement": "T/C", "setting": "[8]", "result": "96 % of control"}]}
{"smiles": "Cc1nc[nH]c(=O)c1CCC(C)C", "values": [{"measurement": "T/C", "setting": "dose: 100.0 mg/kg/injection, schedule: Q01DX001 (ip), vehicle: Klucel (hydroxypropylcellulose) (HPC)", "result": "107 % of control"}, {"measurement": "T/C", "setting": "dose: 200.0 mg/kg/injection, schedule: Q01DX001 (ip), vehicle: Klucel (hydroxypropylcellulose) (HPC)", "result": "105 % of control"}, {"measurement": "T/C", "setting": "dose: 400.0 mg/kg/injection, schedule: Q01DX001 (ip), vehicle: Klucel (hydroxypropylcellulose) (HPC)", "result": "100 % of control"}]}
{"smiles": "O=S(=O)(O)c1cccc(N=Nc2c(S(=O)(=O)O)cc3cc(S(=O)(=O)O)c(N=Nc4cccc(S(=O)(=O)O)c4)c(O)c3c2O)c1", "values": [{"measurement": "T/C", "setting": "[9]", "result": "109 % of control"}, {"measurement": "T/C", "setting": "dose: 100.0 mg/kg/injection, schedule: Q04DX003 (ip), vehicle: saline", "result": "116 % of control"}, {"measurement": "T/C", "setting": "[10]", "result": "97 % of control"}, {"measurement": "T/C", "setting": "dose: 200.0 mg/kg/injection, schedule: Q04DX003 (ip), vehicle: saline", "result": "111 % of control"}, {"measurement": "T/C", "setting": "[11]", "result": "108 % of control"}, {"measurement": "T/C", "setting": "dose: 400.0 mg/kg/injection, schedule: Q04DX003 (ip), vehicle: saline", "result": "103 % of control"}]}
{"smiles": "O=C(C[n+]1ccccc1CO)c1ccc(-c2ccc(C(=O)C[n+]3ccccc3CO)cc2)cc1", "values": [{"measurement": "T/C", "setting": "dose: 0.15 mg/kg/injection, schedule: Q04DX003 (ip), vehicle: saline", "result": "97 % of control"}, {"measurement": "T/C", "setting": "dose: 0.3 mg/kg/injection, schedule: Q04DX003 (ip), vehicle: saline", "result": "96 % of control"}, {"measurement": "T/C", "setting": "dose: 0.6 mg/kg/injection, schedule: Q04DX003 (ip), vehicle: saline", "result": "100 % of control"}]}
{"smiles": "Cc1ccc(NC(=O)Nc2ccc(Cl)c(Cl)c2)cc1Cl", "values": [{"measurement": "T/C", "setting": "dose: 100.0 mg/kg/injection, schedule: Q01DX009 (ip), vehicle: Klucel (hydroxypropylcellulose) (HPC)", "result": "97 % of control"}, {"measurement": "T/C", "setting": "[1]", "result": "93 % of control"}, {"measurement": "T/C", "setting": "dose: 200.0 mg/kg/injection, schedule: Q01DX009 (ip), vehicle: Klucel (hydroxypropylcellulose) (HPC)", "result": "87 % of control"}, {"measurement": "T/C", "setting": "[2]", "result": "96 % of control"}, {"measurement": "T/C", "setting": "dose: 400.0 mg/kg/injection, schedule: Q01DX009 (ip), vehicle: Klucel (hydroxypropylcellulose) (HPC)", "result": "92 % of control"}, {"measurement": "T/C", "setting": "[3]", "result": "91 % of control"}]}
{"smiles": "Cc1ccc2ccccc2c1", "values": [{"measurement": "T/C", "setting": "[4]", "result": "91 % of control"}, {"measurement": "T/C", "setting": "[5]", "result": "95 % of control"}]}
{"smiles": "N\\C([S-])=N/N=C\\C(=N/N=C(\\N)[S-])C(O)C(O)C(O)CO.[Pt+2]", "note": "(centres undefined)", "values": [{"measurement": "T/C", "setting": "[12]", "result": "91 % of control"}, {"measurement": "T/C", "setting": "dose: 100.0 mg/kg/injection, schedule: Q04DX003 (ip), vehicle: saline with Tween-80", "result": "92 % of control"}, {"measurement": "T/C", "setting": "dose: 200.0 mg/kg/injection, schedule: Q01DX009 (ip), vehicle: saline", "result": "100 % of control"}, {"measurement": "T/C", "setting": "dose: 200.0 mg/kg/injection, schedule: Q04DX003 (ip), vehicle: saline with Tween-80", "result": "89 % of control"}, {"measurement": "T/C", "setting": "dose: 400.0 mg/kg/injection, schedule: Q04DX003 (ip), vehicle: saline with Tween-80", "result": "96 % of control"}]}
{"smiles": "COc1ncnc2c1c(C#N)cn2C1OC(CO)C(O)C1O", "note": "(centres undefined)", "values": [{"measurement": "T/C", "setting": "dose: 6.25 mg/kg/injection, schedule: Q01DX009 (ip), vehicle: saline", "result": "124 % of control"}, {"measurement": "T/C", "setting": "[12]", "result": "119 % of control"}, {"measurement": "T/C", "setting": "dose: 100.0 mg/kg/injection, schedule: Q01DX009 (ip), vehicle: saline", "result": "169 % of control"}, {"measurement": "T/C", "setting": "dose: 200.0 mg/kg/injection, schedule: Q01DX005 (ip), vehicle: saline", "result": "93 % of control"}]}
{"smiles": "CC(=O)N1Cc2ncnc(N)c2C1", "values": [{"measurement": "T/C", "setting": "[6]", "result": "101 % of control"}, {"measurement": "T/C", "setting": "[7]", "result": "95 % of control"}, {"measurement": "T/C", "setting": "[8]", "result": "101 % of control"}]}
{"smiles": "c1ccc2cc3c(ccc4cccc[n+]43)cc2c1", "values": [{"measurement": "T/C", "setting": "dose: 50.0 mg/kg/injection, schedule: Q01DX001 (ip), vehicle: saline", "result": "119 % of control"}]}
{"smiles": "Cc1c([N+](=O)[O-])cc(C(C)(C)C)c(OC(=O)Nc2cccc(Cl)c2)c1[N+](=O)[O-]", "values": [{"measurement": "T/C", "setting": "dose: 12.5 mg/kg/injection, schedule: Q01DX009 (ip), vehicle: Klucel (hydroxypropylcellulose) (HPC)", "result": "100 % of control"}, {"measurement": "T/C", "setting": "dose: 25.0 mg/kg/injection, schedule: Q01DX009 (ip), vehicle: Klucel (hydroxypropylcellulose) (HPC)", "result": "94 % of control"}, {"measurement": "T/C", "setting": "dose: 50.0 mg/kg/injection, schedule: Q01DX009 (ip), vehicle: Klucel (hydroxypropylcellulose) (HPC)", "result": "101 % of control"}]}
{"smiles": "CC(=O)COc1ccc(Cl)cc1Cl", "values": [{"measurement": "T/C", "setting": "[9]", "result": "98 % of control"}, {"measurement": "T/C", "setting": "[10]", "result": "97 % of control"}, {"measurement": "T/C", "setting": "[11]", "result": "92 % of control"}]}
